Publication PMC11363342 (ACS Central Science, 2024)

How the values were obtained:
ER α-Glu II (GANAB) = test: Competitive activity-based protein profiling with ABP 29 in ALI-PBEC lysate, GANAB; format: cell-based, human
SARS-CoV-2 [1] = test: Viral load reduction assay on H1299/ACE2 cells, extracellular viral RNA copies by RT-qPCR; format: cell-based
GAA = GAA (Homo sapiens, UniProt P10253); test: Competitive activity-based protein profiling with ABP 29 in ALI-PBEC lysate, GAA; format: cell-based; details: pH 7, 48 hpi
SARS-CoV-2 [2] = test: Plaque reduction assay on H1299/ACE2 cells (time of treatment); format: cell-based
Procedure: To evaluate whether compound 11 has an effect on host proteins (for instance, ACE2) involved in viral entry, we treated monolayers of H1299/ACE2 cells with compound 11 either 48 or 2 h before infection, during infection (0–1 h), or starting from 1 h postinfection (hpi). The cell monolayers were infected with ∼20 PFU of SARS-CoV-2, and after 1 h the inoculum was replaced with an overlay. In one well (Post Infection) the overlay contained compound 11. Remdesivir, a viral RNA synthesis inhibitor, was added to the overlay of another well, as a positive control for blocking virus replication in the cell.
H1299/ACE2 cells were seeded in a 6-well plate at a density of 1.3 × 10^5 cells/well (20% confluency), 96 h prior to infection. […] The monolayers were infected with ∼20 PFU of SARS-CoV-2/Leiden0008. In the postinfection treatment, the compound (or RDV) was added to the Avicel overlay. Cells were incubated for 4 days at 37 °C before fixation and crystal violet staining.

SARS-CoV-2 S protein = format: cell-based
SARS-CoV = format: cell-based; details: Vero E6, MOI 1, 16 hpi, increasing concentrations
SARS-CoV-2 [3] = format: cell-based
SARS-CoV-2 [4] = test: microbe, parasite or virus in culture; format: cell-based; details: Severe acute respiratory syndrome coronavirus 2, Vero C1008, Vero E6 cells, SARS-CoV-2/Leiden0002, n = 3, mean ± SEM; read-out: EC50 (μM), SARS-CoV-2 CPE reduction
HCoV-229E = format: cell-based
SARS-CoV-2 [5] = test: Viral load reduction assay in Calu-3 cells, extracellular viral RNA copies by RT-qPCR; format: cell-based; details: Calu-3, MOI 1, 16 hpi
Procedure: (§1) Cells were pretreated with 11 and infected with SARS-CoV-2 at a multiplicity of infection (MOI) of 1. At 16 h postinfection (hpi) supernatant was harvested to quantify the infectious virus titer by plaque assay and extracellular viral RNA copies by RT-qPCR. […] This is in line with the expected mechanism of action of the compound that involves viral (structural) protein maturation, likely resulting in reduced infectivity of progeny virus. We then calculated the specific infectivity (defined as the number of infectious particles per viral RNA copy) of treated and untreated samples for the data in Figure 3A,B (Figure 3C). […] None of the treatments caused noticeable cytotoxicity in uninfected treated cells (Figure 3B). Similarly, treatment of infected Calu-3 lung epithelial cells with 11 reduced infectious progeny virus titers by ∼10-fold, while no reduction in extracellular viral RNA copies was observed (Figure S3).
(§2) Figure S2: Cytopathic effect reduction assays on Vero E6 monkey kidney cells and H1299/ACE2 human lung epithelial cells. […]
(§3) plaque assay and RT-qPCR, respectively. Uninfected compound-treated cells were assessed by MTS assay in parallel to measure cytotoxicity of the compounds. n=3 independent experiments. […]

SARS-CoV-2 [6] = test: Viral load reduction assay in Calu-3 cells, infectious virus titer by plaque assay; format: cell-based
Procedure: as §1, §2, §3

## O=S1(=O)O[C@@H]2[C@H](O)[C@@H](O)[C@H](O)[C@@H](CO)[C@@H]2O1 [Compound 11, 1,6-epi-cyclophellitol cyclosulfate]
ER α-Glu II (GANAB); 0.5 μM
  ER α-Glu II inhibition in ALI-PBEC (in words): almost full inhibition
ER α-Glu II (GANAB); pH 7
  in cellulo ER α-Glu II inhibition by ABP 29 labeling (in words): most efficient in inhibiting ER α-Glu II and GAA at low concentrations
SARS-CoV-2 [1]
  extracellular viral RNA copy numbers (in words): only slightly reduced
GAA
  in cellulo GAA inhibition by ABP 29 labeling (in words): most efficient in inhibiting ER α-Glu II and GAA at low concentrations
SARS-CoV-2 [2]; H1299/ACE2, 5 μM, 48 or 2 h before or 0–1 h
  plaque formation, pretreatment or treatment only during infection: had no effect on the number of plaques that developed or their morphology
SARS-CoV-2 [2]; H1299/ACE2, compound 11 at 5 μM
  plaque formation, treatment after infection (in the overlay): prevented the formation of plaques
SARS-CoV-2 S protein
  (processed) S2 in the medium: strongly reduced
  full-length S protein in the cell lysate: minor reduction
  ∼90 kDa S2 fragment in the cell lysate: almost complete disappearance
SARS-CoV
  infectious progeny of SARS-CoV (in words): significant reduction of infectious progeny
SARS-CoV-2 [3]
  concentration at which the inhibitory effect reached a plateau: 1.6 µM
  reduction of the infectious progeny virus titer: 100 fold
SARS-CoV-2 [3]; H1299/ACE2, 1.5 μM compound
  specific infectivity (infectious particles per viral RNA copy): decrease in specific infectivity
SARS-CoV-2 [4]
  EC50: 0.48 ± 0.1 µM
HCoV-229E
  virus infectivity of HCoV-229E (in words): did not show any reduction in virus infectivity
SARS-CoV-2 [5]
  extracellular viral RNA copies (in words): no reduction
SARS-CoV-2 [6]; Calu-3, 0.5–1.6 μM
  reduction of infectious virus titers: up to 2 logs
SARS-CoV-2 [6]; Calu-3, MOI 1, 16 hpi
  reduction of infectious progeny virus titers: ~10 fold
